Results from patent US6127136A, “Detection of dioxin-like compounds by detection of transformed Ah receptor/ARNT complex” (Paracelsian, Inc., priority 1996, dated 2000).
“And” between values parts separate entries of the source, which are not always exact repeats. Equal values may be shown once.

Experiments:
[1] = target: T1, transformed Ah receptor/ARNT complex (Cavia porcellus, UniProt Q6J287); assay: Ah-ELISA, cytosol volume, time and temperature optimization; assay type: biochemical, guinea pig (hepatic cytosol); design: from tissue; host or cells: hepatic cytosol of male Hartley guinea pigs (animals from Cornell Research Animal Resources)
Method: The reagents and ELISA plate were prepared as described in Example 8. The volume of cytosol, temperature of cytosol incubation and time of incubation were all varied independently. The test volume of cytosol was varied between 50 and 200 μl at 50 μl increments. […] The assay was with a cytosol incubation varying between 30 and 120 minutes at 30 minute increments.
Target sequence in this assay (Q6J287 1-846): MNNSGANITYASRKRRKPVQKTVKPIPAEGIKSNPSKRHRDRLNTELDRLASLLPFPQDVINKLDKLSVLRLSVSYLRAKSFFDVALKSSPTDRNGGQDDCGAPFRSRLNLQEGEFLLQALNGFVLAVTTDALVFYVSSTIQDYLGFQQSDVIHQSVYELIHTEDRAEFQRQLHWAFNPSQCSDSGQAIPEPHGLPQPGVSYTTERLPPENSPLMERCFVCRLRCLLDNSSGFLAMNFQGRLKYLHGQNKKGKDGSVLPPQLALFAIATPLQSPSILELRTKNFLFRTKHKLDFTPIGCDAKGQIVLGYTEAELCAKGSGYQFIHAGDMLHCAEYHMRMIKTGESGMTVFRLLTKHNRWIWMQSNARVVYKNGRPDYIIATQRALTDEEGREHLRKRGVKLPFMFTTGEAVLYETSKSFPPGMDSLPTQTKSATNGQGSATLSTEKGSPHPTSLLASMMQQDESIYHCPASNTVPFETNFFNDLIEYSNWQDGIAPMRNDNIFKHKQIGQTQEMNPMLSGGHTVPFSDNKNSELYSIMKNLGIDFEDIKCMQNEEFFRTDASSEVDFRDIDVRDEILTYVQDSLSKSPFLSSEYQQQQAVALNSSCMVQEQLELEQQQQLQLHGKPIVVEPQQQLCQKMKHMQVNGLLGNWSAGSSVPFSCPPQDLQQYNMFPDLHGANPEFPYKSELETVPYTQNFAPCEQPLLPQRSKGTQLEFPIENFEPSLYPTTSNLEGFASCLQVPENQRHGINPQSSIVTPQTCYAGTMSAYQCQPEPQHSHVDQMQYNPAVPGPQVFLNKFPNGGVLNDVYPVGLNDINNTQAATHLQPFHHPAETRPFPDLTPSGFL
Target sequence in this assay (Q0WXX3 1-790 partner): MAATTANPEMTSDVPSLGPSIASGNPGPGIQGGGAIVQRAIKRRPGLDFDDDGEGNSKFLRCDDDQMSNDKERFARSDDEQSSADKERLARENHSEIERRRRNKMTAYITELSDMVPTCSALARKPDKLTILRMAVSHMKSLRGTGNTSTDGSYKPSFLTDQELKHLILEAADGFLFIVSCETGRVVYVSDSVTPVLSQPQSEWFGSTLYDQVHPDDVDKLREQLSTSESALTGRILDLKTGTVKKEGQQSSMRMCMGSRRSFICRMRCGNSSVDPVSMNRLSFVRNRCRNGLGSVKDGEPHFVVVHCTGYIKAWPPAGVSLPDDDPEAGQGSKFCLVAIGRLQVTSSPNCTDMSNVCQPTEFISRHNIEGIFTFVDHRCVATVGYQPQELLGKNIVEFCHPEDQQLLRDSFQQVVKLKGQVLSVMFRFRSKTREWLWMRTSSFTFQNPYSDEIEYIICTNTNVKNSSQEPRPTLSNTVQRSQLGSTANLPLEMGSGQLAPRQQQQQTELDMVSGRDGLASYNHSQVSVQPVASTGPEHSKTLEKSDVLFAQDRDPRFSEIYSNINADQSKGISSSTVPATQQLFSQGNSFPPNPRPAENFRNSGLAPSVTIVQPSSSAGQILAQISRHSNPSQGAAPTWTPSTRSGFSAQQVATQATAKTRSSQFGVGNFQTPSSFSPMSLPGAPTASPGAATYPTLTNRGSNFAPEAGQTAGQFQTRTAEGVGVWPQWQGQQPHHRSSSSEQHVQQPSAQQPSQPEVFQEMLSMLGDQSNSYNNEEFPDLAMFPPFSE

[2] = target: T1, transformed Ah receptor/ARNT complex; assay: mini-Ah immunoassay with anti-ARNT detection of transformed Ah receptor/ARNT complex; assay type: biochemical, guinea pig (male Hartley, hepatic cytosol); design: AHR/ARNT heterodimer on DRE gel, anti-ARNT detection; in some samples recombinant baculovirus ARNT (Bradfield) added; conditions: for density, average / density: TCDD (+); for density: single replicate
Method: Male Hartley guinea pigs weighing 300-350 g were obtained from Cornell Research Animal Resources, Cornell University, Ithaca, N.Y. Guinea pigs were anaesthetized and killed with carbon dioxide. Livers were perfused in situ with 100 mL ice-cold perfusion buffer, excised, trimmed of connective tissue, poorly perfused liver and gall bladder and weighed. The liver was minced and five mL of ice-cold HEDG per gram liver were added and the whole homogenized in a 50 mL homogenizer with teflon pestle using at 200 rpm for a total of seven strokes. Crude homogenate was centrifuged at 12,500 RPM in 50 mL tubes in a JA17 rotor in a Beckman J2-MI preparative centifuge at 4 degrees C for 20 minutes.
For a typical mini-Ah immunoassay utilizing 12 samples, 5 mL of Transformed Ah Receptor Affinity Gel slurry described above was pipeted into a 50 mL conical tube. The slurry was washed with 40 mL HEDG and centifuged at 1000 g for 5 min, the supernatant withdrawn and discarded, the pellet washed with 40 mL HEDG, and centrifuged again. After the second centrifugation all but 5 mL of supernatant was withdrawn and the gel thus resuspended in the original volume. 10 mL guinea pig hepatic cytosol was thawed. The thawed cytosol was pooled and then divided into two 5 mL groups and treated with either 5 uL DMSO or 5 uL 10 uM TCDD in DMSO.
Assembly of transformation mixture:In the preferred embodiment of the mini-Ah immunoassay, each sample was composed of one 1.5 mL microfuge tube with the following sequential additions: 90 uL 4 M NaCl/HEDG, 400 uL Transformed Ah Receptor Affinity Gel slurry and 800 uL cytosol (treated with DMSO or TCDD as described above). The three components described above are the minimum components added at that step of the mini-Ah immunoassay. Any additional materials, such as ARNT, anti-ARNT and anti-Rabbit/alkaline phosphatase conjugate, were sometimes also added at this time as described in the specific examples. After assembly of the samples, the tubes were capped and the samples incubated at room temperature for 2 hours with gentle rocking to allow transformation of the Ah receptor to take place, interaction of transformed Ah receptor and ARNT, and binding of the transformed Ah receptor as a heteromer to the DRE oligonucleotide contained on the Transformed Ah Receptor Affinity Gel.
Immunoprobing of transformed Ah receptor: The nitrocellulose membrane was then removed from the ELIFA apparatus, rinsed briefly with water, and placed in 20 mL blocker containing test antibody. All antibodies were incubated with the nitrocellulose membrane for one hour at room temperature. When the test antibody was anti-Ah receptor/alkaine phosphatase conjugate, 100 uL anti-Ah receptor/alkaline phosphatase conjugate (1:200), per 20 mL blocker was used. When anti-ARNT was added to the transformation mixture, anti-Rabbit/alkaline phosphatase conjugate (Sigma, St. Louis, Mo.) diluted 1:1000 (20 uL to 20 mL blocker) was used to probe the membrane. When ARNT, anti-ARNT and anti-Rabbit or anti-ARNT and anti-Rabbit was added to the transformation mixture, the Immunoprobing step was eliminated.
Immunodetection and densitometry: In all cases the nitrocellulose membrane was rinsed prior to immunodetection 3 times for 5 min each with 100 mL TBST, briefly washed in AP development buffer and developed in freshly made BCIP/NBT developer for 5 min, whereupon the color reaction was stopped by washing the membrane in water.
Quantitative data were obtained by scanning the dried membrane in a Microtek 600ZS scanner in gray scale, 300 dpi, 0% brightness, 0% contrast. Densitometric measurements of the dot-blots were made using ScanAnalysis software (Biosoft, Cambridge U.K.).
Cytosol and DRE affinity gel are prepared as described above. Cytosol is dosed with 1:1000 v/v DMSO (-) or 1:1000 v/v 10 uM 2,3,7,8-tetrachlorodibenzo-p-dioxin in DMSO (+).
Immunoprobing of transformed Ah receptor is as described above with the following probes. […]
Target sequence in this assay (Q6J287 10-846): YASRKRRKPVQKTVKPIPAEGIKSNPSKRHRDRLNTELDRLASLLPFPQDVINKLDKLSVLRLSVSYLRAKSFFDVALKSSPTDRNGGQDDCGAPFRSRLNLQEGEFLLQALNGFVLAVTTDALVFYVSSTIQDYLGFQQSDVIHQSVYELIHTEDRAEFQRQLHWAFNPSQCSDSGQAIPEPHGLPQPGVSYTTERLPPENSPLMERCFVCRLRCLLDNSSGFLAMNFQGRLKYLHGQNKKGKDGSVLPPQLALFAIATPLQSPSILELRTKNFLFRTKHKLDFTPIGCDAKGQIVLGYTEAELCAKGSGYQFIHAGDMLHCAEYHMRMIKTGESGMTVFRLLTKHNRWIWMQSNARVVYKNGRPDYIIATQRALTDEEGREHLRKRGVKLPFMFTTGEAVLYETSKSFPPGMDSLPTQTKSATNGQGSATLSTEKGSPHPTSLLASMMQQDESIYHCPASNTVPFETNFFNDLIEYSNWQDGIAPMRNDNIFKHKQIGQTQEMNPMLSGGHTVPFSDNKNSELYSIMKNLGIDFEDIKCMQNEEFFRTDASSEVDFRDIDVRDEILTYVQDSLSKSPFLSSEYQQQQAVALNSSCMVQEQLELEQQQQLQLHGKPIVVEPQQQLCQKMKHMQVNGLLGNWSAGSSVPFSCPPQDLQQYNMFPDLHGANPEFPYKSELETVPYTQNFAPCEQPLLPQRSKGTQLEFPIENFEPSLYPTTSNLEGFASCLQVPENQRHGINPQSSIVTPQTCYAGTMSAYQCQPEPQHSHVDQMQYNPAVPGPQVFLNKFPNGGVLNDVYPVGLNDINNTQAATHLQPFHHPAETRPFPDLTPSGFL
Target sequence in this assay (Q0WXX3 1-790 partner): as the sequence (Q0WXX3 1-790 partner) above
Target sequence in this assay (P27540 whole entry partner): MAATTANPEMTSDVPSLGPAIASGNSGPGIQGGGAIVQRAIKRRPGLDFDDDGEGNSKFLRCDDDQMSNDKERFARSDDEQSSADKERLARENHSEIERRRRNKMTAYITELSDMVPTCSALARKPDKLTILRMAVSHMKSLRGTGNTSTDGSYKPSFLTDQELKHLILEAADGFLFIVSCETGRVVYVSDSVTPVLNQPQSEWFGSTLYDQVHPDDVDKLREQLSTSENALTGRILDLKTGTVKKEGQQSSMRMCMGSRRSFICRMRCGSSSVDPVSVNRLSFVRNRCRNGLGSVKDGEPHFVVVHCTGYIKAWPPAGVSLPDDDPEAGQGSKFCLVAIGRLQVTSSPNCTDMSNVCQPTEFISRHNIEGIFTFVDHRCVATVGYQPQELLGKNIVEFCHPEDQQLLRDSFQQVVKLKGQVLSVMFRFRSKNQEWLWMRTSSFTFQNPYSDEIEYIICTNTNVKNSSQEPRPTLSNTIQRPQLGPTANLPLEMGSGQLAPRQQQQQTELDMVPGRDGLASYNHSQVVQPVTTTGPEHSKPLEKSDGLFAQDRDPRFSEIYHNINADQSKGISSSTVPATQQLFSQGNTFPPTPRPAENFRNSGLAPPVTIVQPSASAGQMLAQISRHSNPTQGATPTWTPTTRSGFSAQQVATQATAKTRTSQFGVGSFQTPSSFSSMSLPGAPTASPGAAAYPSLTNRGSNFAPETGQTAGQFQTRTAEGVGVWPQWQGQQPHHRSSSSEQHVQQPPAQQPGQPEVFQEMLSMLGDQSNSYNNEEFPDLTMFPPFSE

[3] = Example 3, 220 ng anti-ARNT spike
[4] = Example 3, 660 ng anti-ARNT spike
[5] = Example 4, ARNT/anti-ARNT/anti-rabbit
[6] = Example 4, anti-ARNT/anti-rabbit, no ARNT added
[7] = Example 4, codes 1-4 (ARNT 2 ug, anti-ARNT 2 uL)

Clc1cc2c(cc1Cl)Oc1cc(Cl)c(Cl)cc1O2 [TCDD, 2,3,7,8-tetrachlorodibenzo-p-dioxin]
ave(+)-BG ([1]; 50 uL, 120 min, 30 C): 1006 | difference ([1]; 50 uL, 120 min, 30 C): 984 | ave(+)-BG ([1]; 100 uL, 120 min, 30 C): 1463 | difference ([1]; 100 uL, 120 min, 30 C): 1430 | ave(+)-BG ([1]; 150 uL, 120 min, 30 C): 1910 | difference ([1]; 150 uL, 120 min, 30 C): 1867 | ave(+)-BG ([1]; 200 uL, 30 min, 30 C): 394 | difference ([1]; 200 uL, 30 min, 30 C): 359 | ave(+)-BG ([1]; 200 uL, 30 min, 38 C): 525 | difference ([1]; 200 uL, 30 min, 38 C): 497 | ave(+)-BG ([1]; 200 uL, 60 min, 30 C): 1324 | difference ([1]; 200 uL, 60 min, 30 C): 1288 | ave(+)-BG ([1]; 200 uL, 90 min, 30 C): 1882 | difference ([1]; 200 uL, 90 min, 30 C): 1839 | ave(+)-BG ([1]; 200 uL, 120 min, 22 C): 1924 | difference ([1]; 200 uL, 120 min, 22 C): 1863 | ave(+)-BG ([1]; 200 uL, 120 min, 30 C): 2369 | difference ([1]; 200 uL, 120 min, 30 C): 2324 | ave(+)-BG ([1]; 200 uL, 120 min, 35 C): 959 | difference ([1]; 200 uL, 120 min, 35 C): 898 | density, difference TCDD treated (+) minus DMSO treated (-) [2, 3]: 185901 | density, average ([2]; Example 3, 220 ng anti-ARNT spike, average of two replicates): 205498 | density [2, 3]: 191233 and 219762 | density, difference TCDD treated (+) minus DMSO treated (-) [2, 4]: 189840 | density, average ([2]; Example 3, 660 ng anti-ARNT spike, average of two replicates): 261285 | density [2, 4]: 231412 and 291157 | density, difference [2, 5]: 76074 | density ([2]; Example 4, ARNT/anti-ARNT/anti-rabbit in mixture): 85215 and 80175 | density, average [2, 5]: 82695 | density, difference [2, 6]: 33501 | density [2, 6]: 36309 | density, average ([2]; Example 4, anti-ARNT/anti-rabbit, no ARNT added, second replicate lost): 36309 | density, difference [2, 7]: 235535 | density, average [2, 7]: 244132 | density ([2]; Example 4, codes 1-4 (ARNT 2 ug, anti-ARNT 2 uL; printed Normal)): 233321 and 254942
